Assay [1] deals with PTH1R-R485X. How it is done: (§1) Images are representative of three independent experiments.
Data are representative of three independent experiments (a-d); or means ± SEM of three or four independent experiments (e, f). Bar heights in graphs of panels b and d indicate the means ± SEM of counts from the five cells shown by the individual data points. Scale bars in a and c indicate 10 μm.
Ligand-induced recruitment of β-arrestin2^YFP was assessed in GBR-24 cells, which are HEK293/glosensor (Gs22A)-derived cells stably expressing β-arrestin2^YFP [42]. The cells in six-well plates were transiently transfected with plasmid DNA encoding PTH1R-WT or mutant derivative, and 24 hours later seeded onto glass coverslips in 6-well plates. […] In some experiments, the cells were imaged by confocal microscopy using a Leica DMi8 inverted Microscope at ×400 magnification, and the images were processed using Leica Application Suite X (LAS X) software. Regions of interest were digitally expanded 3-5X to improve views.
Quantification of β-arrestin2^YFP clusters was performed using ImageJ software (vers. 1.53)[67]. The color images were converted to 8 bit and then 16 bit gray-scale, and the threshold was adjusted on a cell-by-cell basis to show distinct particles (interpreted as clusters of β-arrestin2^YFP in intracellular vesicles); threshold values ranged from ~ 20-60. The free-hand tool was used to define the area analyzed for each cell, and the Analyze Particle tool was used to obtain the number of particles, the total area, and the mean gray scale (intensity) of each particle for each cell.

Assay [2] deals with T1, PTH1R-WT (Homo sapiens, UniProt Q03431). Description: Fluorescence microscopy of ligand internalization and β-arrestin2YFP recruitment, GBR-24 cells, ImageJ. Format: cell-based. The note with it: 30 nM TMR ligand (unlabeled: 10 nM), 30 min.
Description: as §1
(§2) Scale bars in a and c indicate 10 μm.

Assay [3] has as its target T2, PTH1R-E35K (Homo sapiens, UniProt Q03431, E35K). Described as above. The assay is classed as cell-based.
Description: as §1, §2

Assay [4] addresses T3, PTH1R-Y134S (Homo sapiens, UniProt Q03431, Y134S). The assay is described as above. The assay is classed as cell-based.
Description: as §1, §2

The test system of assay [5] is PTH1R-R485X. The conditions noted are these: 30 nM, 30 min, RT.
Description: (§3) To visualize receptors on the surface of non-stimulated cells, cells were fixed with 3.7% paraformaldehyde for 5 min at room temperature, incubated for 1 hour at room temperature with anti-HA mouse monoclonal primary antibody (anti-HA.11, BioLegend, Cat. No. 901513), rinsed, incubated for 1 h at room temperature with a goat-anti-mouse IgG secondary antibody poly-conjugated to HRP (poly-HRP-anti-mIgG; ThermoFisher Scientific, Cat. No. 32230), stained with Tyramide-Alexafluor-594 (Tyr^594; Tyramide SuperBoost Kit ThermoFisher Scientific, Cat. No. B4092), then mounted on a glass microscope slide in Vectashield containing DAPI and imaged using a Nikon Eclipse fluorescence microscope at 400X magnification.
Assay [6] addresses T1, PTH1R-WT. Nature of the assay: Visualization of surface receptors after PTH(1-34)FAM pre-stimulation. Format: cell-based. The note with it: 30 nM, 30 min, RT.
Description: as §3
Assay [7] deals with T3, PTH1R-Y134S. Description: Glosensor cAMP agonist dose-response, Gs22a cells. The conditions noted are these: % of maximum response of each ligand on PTH1R-WT; five experiments. Format: cell-based.
Another assay concerns the target PTH1R-H223R (Homo sapiens, UniProt Q03431, H223R). Nature of the assay: Glosensor cAMP agonist dose-response, Gs22a cells. Format: cell-based. The conditions noted are these: % of maximum response of each ligand on PTH1R-WT; five experiments.
Assay [8] addresses PTH1R-R485X (Homo sapiens, UniProt Q03431). Description: cell-based.
Assay [9] concerns the target T1, PTH1R-WT. Description: Glosensor cAMP agonist dose-response, Gs22a cells. The assay is classed as cell-based. The note with it: % of maximum response of each ligand on PTH1R-WT; five experiments.
Assay [10] concerns the target T2, PTH1R-E35K. Nature of the assay: Glosensor cAMP agonist dose-response, Gs22a cells. The assay is classed as cell-based. The note with it: % of maximum response of each ligand on PTH1R-WT; five experiments.
Assay [11] concerns the target T3, PTH1R-Y134S. Nature of the assay: cAMP time course with ligand and after ligand washout (duration), Gs22a cells. Format: cell-based. The note with it: 10 nM, 30 min pretreatment.
Description: (§4) Data are means (±SEM) of five (a), four (b, c, e) or three (d) separate experiments.
(§5) Fig. 7 Effects of Eiken mutation on duration of cAMP signaling and desensitization to ligand re-challenge. a Assays were performed in Gs22a cells transiently transfected to express PTH1R-WT or a mutant PTH1R. a Duration of initial cAMP signaling response. […] Response to Ligand rechallenge. After the washout-periods shown in panel a, the cells were rechallenged with the same ligand (1.0 nM) for 60 min and cAMP accumulation was assessed. […] P values indicate comparison by Student’s t test to pre-vehicle treatment: Data are means ± SEM from four separate experiments each in duplicate (b) or quadruplicate (a).
(§6) Basal and ligand-stimulated cAMP signaling was assessed via the glosensor cAMP reporter in Gs22a cells transiently transfected to express either the WT or a mutant hPTH1R in white 96-well plates at room temperature. […] The plate was then placed into a PerkinElmer Envision plate reader and luminescence, as counts per second (cps), was measured at 2-min intervals for 15 min, during which time luciferin uptake occurred and luminescence reached a near steady-state baseline level. The plate was then removed from the plate reader, CIDB alone (vehicle) or containing a test ligand at varying concentrations was added, and luminescence was again measured at 2 min intervals for an additional 30–60 min. […]
In assay [12] the target is T2, PTH1R-E35K. The description is as above. The assay is classed as cell-based. The note with it: 10 nM, 30 min pretreatment.
Description: as §4, §5, §6
Assay [13] concerns the target T2, PTH1R-E35K. Nature of the assay: BRET β-arrestin2 recruitment to plasma membrane (rGFP-CAAX), HEK293. The assay is classed as cell-based.
Description: as §1, §2
(In general: BRET reads energy transfer from a luciferase to a nearby fluorophore.)

Assay [14] has as its target T2, PTH1R-E35K. Description: BRET β-arrestin2 recruitment to early endosomes (rGFP-FYVE), HEK293. Format: cell-based.
Description: as §1, §2

Setting [15] is: 30 nM TMR ligand (unlabeled: 10 nM), 30 min.

Like-named read-outs stand apart in the source and are kept apart here.

On to “AVSEH QL L H D KGrKSIQD L R R R FFL H H L IAEIH TAEI.N H 2 [PTHrP(1-36)^TMR, tetramethyl rhodamine attached to the epsilon amino function of lysine-13]”, for which the “co-clustering of β-arrestin2YFP with ligand in endosomes, in words” value in the assay with PTH1R-R485X [1] (setting [15]) was “no co-clustering with β-arrestin2^YFP”; at PTH1R-WT [2], “robust co-clustering of the ligand in endosomes with β-arrestin2^YFP”; on PTH1R-E35K [3] (setting [15]), “no co-clustering with β-arrestin2^YFP”; on PTH1R-Y134S [4] (setting [15]) it was “no co-clustering with β-arrestin2^YFP”.
In the case of “SVSEIQL MH N L GfKH L N SMER VEWL R KKL QD VH N F.OH [PTH(1-34)FAM, 5(6)-carboxyfluorescein attached to the epsilon amino function of lysine-13]”, the “ligand internalization, in words” value with PTH1R-R485X [5] and on PTH1R-WT [6] was “observed mainly in internalized clusters” throughout.
A word on the Emax: it is the size of the effect at its maximum, as opposed to the concentration needed. With `CC[C@H](C)[C@H](NC(=O)[C@H](CCC(=O)O)NC(=O)[C@H](CO)NC(=O)[C@@H](NC(=O)[C@@H](N)CO)C(C)C)C(=O)N[C@@H](CCC(N)=O)C(=O)N[C@@H](CC(C)C)C(=O)N[C@@H](CCSC)C(=O)N[C@@H](Cc1c[nH]cn1)C(=O)N[C@@H](CC(N)=O)C(=O)N[C@@H](CC(C)C)C(=O)NCC(=O)N[C@@H](CCCCN)C(=O)N[C@@H](Cc1c[nH]cn1)C(=O)N[C@@H](CC(C)C)C(=O)N[C@@H](CC(N)=O)C(=O)N[C@@H](CO)C(=O)N[C@@H](CCSC)C(=O)N[C@@H](CCC(=O)O)C(=O)N[C@@H](CCCNC(=N)N)C(=O)N[C@H](C(=O)N[C@@H](CCC(=O)O)C(=O)N[C@@H](Cc1c[nH]c2ccccc12)C(=O)N[C@@H](CC(C)C)C(=O)N[C@@H](CCCNC(=N)N)C(=O)N[C@@H](CCCCN)C(=O)N[C@@H](CCCCN)C(=O)N[C@@H](CC(C)C)C(=O)N[C@@H](CCC(N)=O)C(=O)N[C@@H](CC(=O)O)C(=O)N[C@H](C(=O)N[C@@H](Cc1c[nH]cn1)C(=O)N[C@@H](CC(N)=O)C(=O)N[C@@H](Cc1ccccc1)C(N)=O)C(C)C)C(C)C` [PTH(1-34)], the Emax was 96 ± 4% on PTH1R-Y134S [7]; 48 ± 6% at PTH1R-H223R; approximately 80% on PTH1R-R485X [8] (read-out: Emax of that attained on PTH1R-WT); 81 ± 10% on PTH1R-R485X [8] (read-out: cAMP Emax); 100% at PTH1R-WT [9]; 106 ± 5% at PTH1R-E35K [10].
Regarding “AVSEIQL L H D KGKSIQD L R R R FFL H H L IAEIH TAEI.N H2 [Ile^5-PTHrP(1-36)]”, the “co-clustering of β-arrestin2YFP, in words” value in the assay on PTH1R-R485X [1] (10 nM unlabeled peptide) is “not”; on PTH1R-E35K [3] (10 nM unlabeled peptide), “r obust co-clust ering”; at PTH1R-Y134S [4] (10 nM unlabeled peptide), “r obust co-clust ering”. For the same molecule, the “duration of cAMP response vs His5-PTHrP(1-36), in words” value on PTH1R-Y134S [11] and on PTH1R-E35K [12] was “more sustained cAMP signaling response” each time. Besides, the “potency ratio vs PTHrP(1-36)” value on PTH1R-E35K [13] and at PTH1R-E35K [14] was approximately 10 fold each time. The “potency vs PTH(1-34), in words” value on PTH1R-E35K [13] and on PTH1R-E35K [14] was “as potent as PTH(1-34)” throughout.

The values above are taken from publication PMC10238420, “Altered Signaling and Desensitization Responses in PTH1R Mutants Associated with Eiken Syndrome” (Communications Biology, 2023).
